# Assay results: the supplement of paper PMC10307832
# Assays:
# Assay in all cases: relative viability (nuclei count vs DMSO), 5 days (fraction); higher = more cells survive
# [1] = system: NCI-H1563
# Procedure, shortened: (§1)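 Each reported value is a median over duplicate plates. It expresses relative viability: treated-well nuclei count divided by vehicle-well nuclei count. Lung cancer cell lines in 1536-well plates were dosed by pin tool a day after seeding, alone with one drug or with a fixed anchor-drug dose plus five library-drug doses (not always all listed) in √10 steps, and nuclei were counted after 5 days.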
# [2] = system: NCI-H650
# Procedure, shortened: as §1
# [3] = system: HARA
# Procedure, shortened: as §1
# [4] = system: 201T
# Procedure, shortened: as §1
# [5] = system: BEN
# Procedure, shortened: as §1
# [6] = system: LU99A
# Procedure, shortened: as §1
# [7] = system: EMC-BAC-2
# Procedure, shortened: as §1
# [8] = system: NCI-H2087
# Procedure, shortened: as §1
# [9] = system: NCI-H2126
# Procedure, shortened: as §1
# [10] = system: LOU-NH91
# Procedure, shortened: as §1
# [11] = system: SK-MES-1
# Procedure, shortened: as §1
# [12] = system: NCI-H1395
# Procedure, shortened: as §1
# [13] = system: NCI-H1993
# Procedure, shortened: as §1
# [14] = system: HCC-78
# Procedure, shortened: as §1
# [15] = system: RERF-LC-KJ
# Procedure, shortened: as §1
# [16] = system: H3255
# Procedure, shortened: as §1
# [17] = system: LC-2-ad
# Procedure, shortened: as §1
# [18] = system: LXF-289
# Procedure, shortened: as §1
# [19] = system: HOP-62
# Procedure, shortened: as §1
# [20] = system: UMC-11
# Procedure, shortened: as §1
# [21] = system: COR-L 105
# Procedure, shortened: as §1
structure (smiles),measurement,setting,value
Cc1cn(-c2cc(NC(=O)c3ccc(C)c(Nc4nccc(-c5cccnc5)n4)c3)cc(C(F)(F)F)c2)cn1 [Nilotinib] + C[C@]1(O)C[C@@H](c2nc(-c3ccc4ccc(-c5ccccc5)nc4c3)c3c(N)nccn32)C1 [Linsitinib] (partner 1 µM),relative viability,[1]; first compound 0.001 µM,1.13
same,relative viability,[1]; first compound 0.003162 µM,1.17
same,relative viability,[1]; first compound 0.01 µM,1.17
same,relative viability,[1]; first compound 0.03162 µM,1.15
same,relative viability,[2]; first compound 0.001 µM,0.81
same,relative viability,[2]; first compound 0.003162 µM,0.778
same,relative viability,[2]; first compound 0.01 µM,0.925
same,relative viability,[2]; first compound 0.03162 µM,0.84
same,relative viability,[2]; first compound 0.1 µM,0.686
same,relative viability,[3]; first compound 0.001 µM,0.987
same,relative viability,[3]; first compound 0.003162 µM,1.37
same,relative viability,[3]; first compound 0.01 µM,1.3
same,relative viability,[3]; first compound 0.03162 µM,0.742
same,relative viability,[3]; first compound 0.1 µM,0.93
same,relative viability,[4]; first compound 0.001 µM,0.942
same,relative viability,[4]; first compound 0.003162 µM,1.06
same,relative viability,[4]; first compound 0.01 µM,1.12
same,relative viability,[5]; first compound 0.001 µM,0.95
same,relative viability,[5]; first compound 0.003162 µM,0.997
same,relative viability,[5]; first compound 0.01 µM,1.26
same,relative viability,[5]; first compound 0.1 µM,1.05
same,relative viability,[6]; first compound 0.001 µM,0.468
same,relative viability,[6]; first compound 0.003162 µM,0.59
same,relative viability,[6]; first compound 0.01 µM,0.593
same,relative viability,[6]; first compound 0.03162 µM,0.568
same,relative viability,[6]; first compound 0.1 µM,0.318
same,relative viability,[7]; first compound 0.001 µM,0.812
same,relative viability,[7]; first compound 0.003162 µM,0.954
same,relative viability,[7]; first compound 0.01 µM,1.1
same,relative viability,[7]; first compound 0.03162 µM,0.66
same,relative viability,[7]; first compound 0.1 µM,0.839
same,relative viability,[8]; first compound 0.001 µM,0.855
same,relative viability,[8]; first compound 0.003162 µM,0.949
same,relative viability,[8]; first compound 0.01 µM,1.08
same,relative viability,[8]; first compound 0.03162 µM,0.852
same,relative viability,[8]; first compound 0.1 µM,0.66
same,relative viability,[9]; first compound 0.001 µM,0.684
same,relative viability,[9]; first compound 0.003162 µM,0.806
same,relative viability,[9]; first compound 0.01 µM,0.827
same,relative viability,[9]; first compound 0.03162 µM,0.779
same,relative viability,[9]; first compound 0.1 µM,0.666
same,relative viability,[10]; first compound 0.001 µM,0.929
same,relative viability,[10]; first compound 0.003162 µM,1.01
same,relative viability,[10]; first compound 0.01 µM,0.976
same,relative viability,[10]; first compound 0.03162 µM,0.926
same,relative viability,[10]; first compound 0.1 µM,0.917
same,relative viability,[11]; first compound 0.003162 µM,1.29
same,relative viability,[11]; first compound 0.01 µM,1.16
same,relative viability,[11]; first compound 0.03162 µM,1.12
same,relative viability,[12]; first compound 0.001 µM,1
same,relative viability,[12]; first compound 0.003162 µM,0.826
same,relative viability,[12]; first compound 0.01 µM,1.07
same,relative viability,[12]; first compound 0.03162 µM,0.86
same,relative viability,[12]; first compound 0.1 µM,0.759
same,relative viability,[13]; first compound 0.001 µM,0.808
same,relative viability,[13]; first compound 0.003162 µM,0.74
same,relative viability,[13]; first compound 0.01 µM,0.702
same,relative viability,[13]; first compound 0.03162 µM,0.804
same,relative viability,[13]; first compound 0.1 µM,0.769
same,relative viability,[14]; first compound 0.001 µM,0.582
same,relative viability,[14]; first compound 0.003162 µM,0.522
same,relative viability,[14]; first compound 0.01 µM,0.637
same,relative viability,[14]; first compound 0.03162 µM,0.612
same,relative viability,[14]; first compound 0.1 µM,0.604
same,relative viability,[15]; first compound 0.001 µM,0.882
same,relative viability,[15]; first compound 0.003162 µM,0.941
same,relative viability,[15]; first compound 0.01 µM,1.05
same,relative viability,[15]; first compound 0.03162 µM,0.853
same,relative viability,[15]; first compound 0.1 µM,0.917
same,relative viability,[16]; first compound 0.001 µM,0.817
same,relative viability,[16]; first compound 0.003162 µM,1.06
same,relative viability,[16]; first compound 0.01 µM,1.2
same,relative viability,[16]; first compound 0.03162 µM,0.875
same,relative viability,[16]; first compound 0.1 µM,0.952
same,relative viability,[17]; first compound 0.001 µM,0.862
same,relative viability,[17]; first compound 0.003162 µM,0.985
same,relative viability,[17]; first compound 0.01 µM,1.02
same,relative viability,[17]; first compound 0.03162 µM,0.897
same,relative viability,[17]; first compound 0.1 µM,0.735
same,relative viability,[18]; first compound 0.001 µM,0.979
same,relative viability,[18]; first compound 0.003162 µM,1.15
same,relative viability,[18]; first compound 0.01 µM,1.09
same,relative viability,[18]; first compound 0.03162 µM,0.949
same,relative viability,[18]; first compound 0.1 µM,0.92
same,relative viability,[19]; first compound 0.001 µM,0.694
same,relative viability,[19]; first compound 0.003162 µM,0.853
same,relative viability,[19]; first compound 0.01 µM,0.863
same,relative viability,[19]; first compound 0.03162 µM,0.715
same,relative viability,[19]; first compound 0.1 µM,0.744
same,relative viability,[20]; first compound 0.001 µM,1
same,relative viability,[20]; first compound 0.003162 µM,1.26
same,relative viability,[20]; first compound 0.01 µM,1.27
same,relative viability,[20]; first compound 0.1 µM,1.13
same,relative viability,[21]; first compound 0.001 µM,0.913
same,relative viability,[21]; first compound 0.01 µM,1
same,relative viability,[21]; first compound 0.03162 µM,0.849
same,relative viability,[21]; first compound 0.1 µM,0.823
